Data published in EP0791056B1, “LIPID-CLEAVAGE ENZYME COMPLEX” (priority 1994, dated 1996).

System: stimulierten humanen PBL
Test: Intracellular concentrations of AZT and AZT nucleotides (radioimmunoassay) in stimulated human PBL
Conditions: for maximale intrazelluläre Konzentrationen an freiem AZT: without alkaline phosphatase; for maximale Konzentrationen an AZT und phosphorylierten AZT-Nukleotiden: with alkaline phosphatase
Text: Zur Bestimmung der intrazellulären Konzentrationen an AZT und/oder AZT-Nukleotiden nach Inkubation mit AZT-DMDOPE bzw. AZT wurden humane PBL aus "Buffy coat" isoliert.
Hierfür wurde "Buffy-coat" von gesunden Spendern gemischt und durch Zentrifugation in einem isotonischen Medium mit einer Dichte von 1.077 g/ml fraktioniert. Da mononukleare Blutzellen (Monozyten und Lymphozyten) eine geringere Dichte als Erythrozyten und polymorphkernige Granulozyten haben, bilden sie einen Ring an der Grenze zwischen Trennmedium und Probe und können mit Hilfe einer Pipette abgenommen werden. Erythrozyten und polymorphkernige Granulozyten sedimentieren aufgrund ihrer höheren Dichte durch das Medium und lassen sich somit von PBL separieren. Zur Stimulation der Zellproliferation wurde Phytohämaglutinin A (Mukoprotein) (PHA-M), der mitogene Lektinextrakt aus der roten Feuerbohne (Phaseolus vulgaris), eingesetzt. Phytohämagglutinin ist eine Familie von 5 Isolektinen, die als Tetramere vorliegen. Die Untereinheiten bestehen aus einem lymphozytenreaktiven Typ-L und einem erythrozytenreaktiven Typ-E. Typ-L hat eine hohe Affinität zu Lymphozytenoberflächenrezeptoren und ist somit verantwortlich für die mitogenen Eigenschaften. Die Stimulation der Lymphozyten wurde in KPMI 1640 Komplettmedium III für 72 h bei 37 °C und 5 % CO2 durchgeführt. Nach Beendigung der Stimulation wurden zur Erhöhung der Zellzahl die Zellen für weitere 24 h in RPMI 1640 Komplettmedium IV kultiviert.
Zur Bestimmung der intrazellulären Konzentrationen an AZT und AZT-Nukleotiden wurden die Zellen in RPMI 1640 Komplettmedium II mit einer Dichte von 1 x 10^6 Zellen/ml in Gewebekulturflaschen (50 ml/25 cm^2) überführt, und in Anwesenheit von 0.03 bzw. 0.3 µg AZT/ml (Charge 15) und 1 bzw. 10 µg AZT-DMDOPE/ml für 1 - 24 h inkubiert.
Die Kulturen wurden anschließend für 1, 3, 6 und 24 h bei 37 °C und 5 % CO2 inkubiert. AZT und seine Nukleotide wurden anschließend mit 60 % Methanol extrahiert. Die extrahierten Nukleotide wurden mit alkalischer Phosphatase quantitativ zu AZT dephosphoryliert, da nur AZT, nicht jedoch die entsprechenden Nukleotide mit Hilfe eines Radioimmuno-Assays detektiert werden kann.
Die Konzentrationen an intrazellulärem AZT, die mit Hilfe des Radioimmuno-Assays bestimmt wurden, setzten sich dementsprechend aus der des AZT und den der AZT-Nukleotide zusammen. Eine separate Quantifizierung der Konzentrationen an AZT-MP, AZT-DP und AZT-TP wurde nicht durchgeführt.
Diese Experimente wurden an stimulierten humanen PBL durchgeführt.
Hierfür wurden Zellsuspensionen mit einer Dichte von 10^6 Zellen/ml mit 1 bzw. 10 µg AZT-DMDOPE/ml für 6 bzw. 24 h bei 37 °C und 5 % CO2 inkubiert.
Zur quantitativen Bestimmung von AZT wurde ein kommerzieller ^125J-AZT RIA Test-Kit verwendet. Puffer und Lösungen wurden gemäß den Angaben des Herstellers angesetzt und im Test-Kit eingesetzt. Die Reaktionsansätze wurden nach untenstehendem Schema (Tab. ) pipettiert, vorsichtig gemischt und für 2 h bei Raumtemperatur inkubiert. Anschließend wurden zur Präzipitation des Komplexes aus ^125J-AZT und des AZT-Antikörpers (aus Kaninchen) 500 µl des Ziege-Anti-Kaninchen-Antikörpers hinzugefügt. Die Ansätze wurden gemischt und erneut bei Raumtemperatur für 30 min inkubiert.

[1] = 10 µg AZT-DMDOPE/ml, after 24 h

CCCCCCCCCCCCSCC(COP(=O)(O)OC[C@H]1O[C@@H](n2cc(C)c(=O)[nH]c2=O)C[C@@H]1N=[N+]=[N-])OCCCCCCCCCC (stereo partly shown) [AZT-DMDOPE, (3'-Desoxy-3'-azidothymidin)-5'-phosphorsäure-(3-dodecyl-mercapto-2-decyloxy)-propylester]
maximale intrazelluläre Konzentrationen an freiem AZT (1 µg AZT-DMDOPE/ml, after 6 h): 0.03 ng/10^6 Zellen
maximale Konzentrationen an AZT und phosphorylierten AZT-Nukleotiden (1 µg AZT-DMDOPE/ml, after 24 h): 3.85 ng/10^6 Zellen
maximale Konzentrationen an AZT und phosphorylierten AZT-Nukleotiden [1]: 6.41 ng/10^6 Zellen
maximale intrazelluläre Konzentrationen an freiem AZT [1]: 0.15 ng/10^6 Zellen
intrazellulärer Spiegel an AZT und seiner Nukleotiden, Verlauf (1 bzw. 10 µg AZT-DMDOPE/ml, whole incubation time 1 - 24 h): stetig steigender
intrazelluläre Spiegel im Vergleich zu AZT (after 24 h incubation, equipotent concentrations): identisch
intrazelluläre Konzentrationen an AZT und AZT-Nukleotiden im Vergleich zur äquipotenten Konzentration an AZT (incubation time 18 - 48 h, further experiments): größer
